# Read-outs that look alike come from different tables or passages of the source.
# Assays:
# Plasma protein binding [1] = type: in vitro ADME; details: mouse, read-out: Plasma protein binding (% bound)
# Plasma protein binding [2] = type: in vitro ADME; details: dog, read-out: Plasma protein binding (% bound)
# Plasma protein binding [3] = type: in vitro ADME; details: human
# [4] = Repeated dose 14-day toxicokinetics (TK) study; type: in vivo, Sprague–Dawley rats; details: for Cmax / half-life / AUC(0-inf) / AUC(0-t) / Tmax: Sprague-Dawley, rat, po, 100 mg/kg
# [5] = both sexes, in vivo, rats, 100 mg/kg body weight
# [6] = female, in vivo, female, day 1, 100 mg/kg bw
# [7] = female, in vivo, female, day 14, 100 mg/kg bw
# [8] = male, in vivo, male, day 1, 100 mg/kg bw
# [9] = male, in vivo, male, day 14, 100 mg/kg bw
structure (smiles),measurement,setting,value
O=C(NO)c1ccc(Cn2cc(-c3ccc(CN4CCCC4)cc3)nn2)cc1 [FNDR-20123],fraction unbound,Plasma protein binding [1],> 0.7
same,fraction unbound,Plasma protein binding [2],> 0.8
same,Plasma protein binding (% bound),Plasma protein binding [3],57.30%
same,fraction unbound,"Plasma protein binding [3]; plasma, Human, read-out: Plasma protein binding (% bound) (converted)",0.43
same,Accumulation (toxicokinetic profile),"[4]; 100 mg/kg bw oral gavage, 14 days",no accumulation
same,Cmax,[4]; [5],1100 nM
same,half-life,[4]; [5],5.5 h
same,half-life,"[4]; female, blood, female, day 1, 100 mg/kg bw",3.21 ± 0.41 h
same,AUC(0-inf),[4]; [6],448 ± 113 ng·h/mL
same,AUC(0-t),[4]; [6],345 ± 71.6 ng·h/mL
same,Cmax,[4]; [6],229 ± 69.3 ng/mL
same,Tmax,[4]; [6],0.28 ± 0.21 h
same,AUC(0-inf),[4]; [7],573 ± 23.1 ng·h/mL
same,AUC(0-t),[4]; [7],480 ± 49.7 ng·h/mL
same,Cmax,[4]; [7],207 ± 36.1 ng/mL
same,Tmax,[4]; [7],0.14 ± 0.1 h
same,half-life,"[4]; male, blood, male, day 1, 100 mg/kg bw",5.72 ± 4.1 h
same,half-life,"[4]; male, blood, male, day 14, 100 mg/kg bw",2.3 ± 0.55 h
same,AUC(0-inf),[4]; [8],1280 ± 282 ng·h/mL
same,AUC(0-t),[4]; [8],712 ± 234 ng·h/mL
same,Cmax,[4]; [8],420 ± 174 ng/mL
same,Tmax,[4]; [8],0.33 ± 0.14 h
same,AUC(0-inf),[4]; [9],1080 ± 216 ng·h/mL
same,AUC(0-t),[4]; [9],957 ± 181 ng·h/mL
same,Cmax,[4]; [9],703 ± 362 ng/mL
same,Tmax,[4]; [9],0.19 ± 0.1 h

# Source: paper PMC7549214 (Malaria Journal, 2020)
